Assay results as given in ChEMBL document CHEMBL1201862, “PubChem BioAssay data set” (2004).
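All cell lines were grown in 96-well plates and treated with compound for 48 hours. GI50 = concentration required for 50% inhibition of growth.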 Active and inactive are the calls of the source. Rule as the data show it: active = GI50 up to about 1.1 µM and inactive = higher.

Tests used:
Assay in all cases: NCI anticancer screen, dose series, 48 h
LOX IMVI = tested on: LOX IMVI
EKVX = tested on: EKVX
COLO 205 = tested on: COLO 205
MDA-MB-435 = tested on: MDA-MB-435
SNB-75 = tested on: SNB-75
NCI-H460 = tested on: NCI-H460
NCI-H226 = tested on: NCI-H226
KM12 = tested on: KM12
CCRF-CEM = tested on: CCRF-CEM
HL-60 = tested on: HL-60
SF-539 = tested on: SF-539
PC-3 = tested on: PC-3
T47D = tested on: T47D
IGROV-1 = tested on: IGROV-1
RPMI-8226 = tested on: RPMI-8226
MCF7 = tested on: MCF7
Malme-3M = tested on: Malme-3M
MOLT-4 = tested on: MOLT-4
HOP-62 = tested on: HOP-62

Measured: GI50

O=C(NNCC(F)(F)F)c1ccncc1
inactive: LOX IMVI > 100 µM | EKVX > 100 µM | COLO 205 > 100 µM | MDA-MB-435 > 100 µM | SNB-75 > 100 µM | NCI-H460 > 100 µM | NCI-H226 > 100 µM | KM12 > 100 µM | CCRF-CEM > 100 µM | HL-60 > 100 µM | SF-539 > 100 µM | PC-3 > 100 µM | T47D > 100 µM | IGROV-1 > 100 µM | RPMI-8226 > 100 µM | MCF7 > 100 µM | Malme-3M > 100 µM | MOLT-4 > 100 µM | HOP-62 > 100 µM

Cc1c(/N=N/c2ccc([N+](=O)[O-])cc2)nc2scc(-c3ccccc3)n12
inactive: LOX IMVI 57.1 µM | EKVX > 100 µM | COLO 205 > 100 µM | MDA-MB-435 > 100 µM | SNB-75 44.5 µM | NCI-H460 71.9 µM | NCI-H226 > 100 µM | KM12 53.5 µM | CCRF-CEM 21.7 µM | HL-60 13.7 µM | SF-539 82.6 µM | PC-3 68.5 µM | T47D > 70.8 µM | IGROV-1 > 84.1 µM | RPMI-8226 67.1 µM | MCF7 49.4 µM | Malme-3M > 100 µM | MOLT-4 19.6 µM | HOP-62 > 66.5 µM

C/C(=C\CNc1ncnc2c1ncn2CCC(=O)OC(C)(C)C)CO
inactive: LOX IMVI > 100 µM | EKVX > 100 µM | COLO 205 > 100 µM | MDA-MB-435 > 100 µM | SNB-75 > 100 µM | NCI-H460 > 100 µM | NCI-H226 > 100 µM | KM12 > 100 µM | CCRF-CEM > 100 µM | HL-60 > 100 µM | SF-539 > 100 µM | PC-3 > 100 µM | T47D > 100 µM | IGROV-1 > 100 µM | RPMI-8226 > 100 µM | MCF7 > 100 µM | Malme-3M > 100 µM | MOLT-4 > 100 µM | HOP-62 > 100 µM

COc1cc([C@@H]2c3cc(O)c(OC)cc3C=C(C(N)=O)[C@H]2C(N)=O)ccc1O
inactive: LOX IMVI > 100 µM | EKVX > 100 µM | COLO 205 > 100 µM | MDA-MB-435 > 100 µM | SNB-75 > 100 µM | NCI-H460 > 100 µM | NCI-H226 > 100 µM | KM12 > 100 µM | CCRF-CEM > 100 µM | HL-60 > 100 µM | SF-539 > 100 µM | PC-3 > 100 µM | T47D > 100 µM | IGROV-1 > 100 µM | RPMI-8226 > 100 µM | MCF7 > 100 µM | Malme-3M > 100 µM | MOLT-4 > 100 µM | HOP-62 > 100 µM

COCn1c(C)c(C)c2c(=O)oc(N(C)C)nc21
inactive: LOX IMVI > 100 µM | EKVX > 100 µM | COLO 205 > 100 µM | MDA-MB-435 > 100 µM | SNB-75 > 100 µM | NCI-H460 > 100 µM | NCI-H226 > 100 µM | KM12 > 100 µM | CCRF-CEM > 100 µM | HL-60 > 100 µM | SF-539 > 100 µM | PC-3 > 100 µM | T47D > 100 µM | IGROV-1 > 100 µM | RPMI-8226 > 100 µM | MCF7 > 100 µM | Malme-3M > 100 µM | MOLT-4 > 100 µM | HOP-62 > 100 µM

Cc1nc(N)c(N2CCN(CN)CC2)c(O)n1
inactive: LOX IMVI > 100 µM | EKVX > 100 µM | COLO 205 > 100 µM | MDA-MB-435 > 100 µM | SNB-75 > 100 µM | NCI-H460 > 100 µM | NCI-H226 > 100 µM | KM12 > 100 µM | CCRF-CEM > 100 µM | HL-60 > 100 µM | SF-539 > 100 µM | PC-3 > 100 µM | T47D > 100 µM | RPMI-8226 > 100 µM | MCF7 > 100 µM | Malme-3M > 100 µM | MOLT-4 > 100 µM | HOP-62 > 100 µM
